From the supplement of paper PMC13380429

Experiments:
[1] = system: A549-ACE2 infected with SARS-CoV-2; assay: morphology score (similarity to uninfected cells); higher = more like uninfected cells; conditions: 24 h
[2] = system: A549-ACE2 infected with SARS-CoV-2; assay: cell count relative to DMSO; higher = less toxic; conditions: 24 h
[3] = system: U2OS; assay: relative viability EC50 (midpoint between 100% and the lowest measured viability); higher = less toxic; conditions: 72 h
[4] = system: Caco-2; assay: as above; conditions: 72 h
[5] = system: Calu-3; assay: as above; conditions: 72 h
[6] = system: Vero E6; assay: as above; conditions: 72 h
[7] = system: U2OS; assay: cell viability relative to DMSO; higher = less toxic; conditions: 72 h
[8] = system: HepG2; assay: as above; conditions: 72 h
[9] = system: Caco-2; assay: as above; conditions: 72 h
[10] = system: Calu-3; assay: as above; conditions: 72 h
[11] = system: Vero E6; assay: as above; conditions: 72 h
[12] = system: U2OS; assay: drug sensitivity score (DSS) for viability; higher = more toxic; extreme values may be limits of the assay; conditions: 72 h
[13] = system: HepG2; assay: as above; conditions: 72 h
[14] = system: Caco-2; assay: as above; conditions: 72 h
[15] = system: Calu-3; assay: as above; conditions: 72 h
[16] = system: Vero E6; assay: as above; conditions: 72 h
[17] = system: A549-ACE2; assay: drug-induced phospholipidosis relative to tamoxifen; higher = more phospholipidosis
[18] = system: A549-ACE2 infected with SARS-CoV-2; assay: SARS-CoV-2 infection rate relative to DMSO; higher = more infection; conditions: 24 h
[19] = system: A549-ACE2; assay: phospholipidosis EC50; higher = less potent phospholipidosis inducer
[20] = system: HepG2; assay: relative viability EC50 (midpoint between 100% and the lowest measured viability); higher = less toxic; conditions: 72 h

COc1cc(/C=C/C(=O)CC(=O)/C=C/c2ccc(O)c(OC)c2)ccc1O [curcumin]
Conditions	SARS-CoV-2 infection rate, [18] [%]	cell count, [2] [%]	cell viability, [7] [%]	cell viability, [8] [%]	cell viability, [9] [%]	cell viability, [10] [%]	cell viability, [11] [%]	morphology score, [1]
1 nM	–	–	99.8	104	97.6	99.9	99.9	–
10 nM	–	–	107	102	102	103	96.3	–
100 nM	–	–	95.5	98.2	97.9	102	95.2	–
0.3 µM	102	89	–	–	–	–	–	-0.12
1000 nM	–	–	99.2	101	89.7	108	98.2	–
3 µM	93	107	–	–	–	–	–	0.05
10 µM	99	99	–	–	–	–	–	0.27
10000 nM	–	–	30	55.7	45.6	80.6	82.9	–
30 µM	14	64	–	–	–	–	–	0.48

Conditions	drug sensitivity score	relative viability EC50 [µM]
[3]	–	3.08
[4]	–	1.79
[5]	–	> 10
[6]	–	> 10
[12]	4	–
[13]	2.2	–
[14]	4.6	–
[15]	0.3	–
[16]	0.6	–

drug-induced phospholipidosis [%], [17]
Conditions	0.3 µM	0.833333 µM	3.33333 µM	6.66667 µM	10 µM	30 µM
24 h	1.25	2.99	3.97	17.5	28.2	105
48 h	3.07	1.47	2.2	8.78	11	–
72 h	3.47	0.682	1.8	7.67	8.59	–

CNCC[C@H](Oc1cccc2ccccc12)c1cccs1 [duloxetine]
Conditions	SARS-CoV-2 infection rate [%]	cell count [%]	cell viability [%]	morphology score	phospholipidosis EC50 [µM]
[1], 0.3 µM	–	–	–	0.09	–
[1], 3 µM	–	–	–	0.1	–
[1], 10 µM	–	–	–	0.8	–
[1], 30 µM	–	–	–	0.78	–
[2], 0.3 µM	–	101	–	–	–
[2], 3 µM	–	100	–	–	–
[2], 10 µM	–	119	–	–	–
[2], 30 µM	–	119	–	–	–
[8], 1 nM	–	–	96	–	–
[8], 10 nM	–	–	102	–	–
[8], 100 nM	–	–	99.4	–	–
[8], 1000 nM	–	–	101	–	–
[8], 10000 nM	–	–	88.2	–	–
[9], 1 nM	–	–	110	–	–
[9], 10 nM	–	–	100	–	–
[9], 100 nM	–	–	97.7	–	–
[9], 1000 nM	–	–	111	–	–
[9], 10000 nM	–	–	95.9	–	–
[10], 1 nM	–	–	103	–	–
[10], 10 nM	–	–	97.1	–	–
[10], 100 nM	–	–	92.4	–	–
[10], 1000 nM	–	–	90.9	–	–
[10], 10000 nM	–	–	78.8	–	–
[11], 1 nM	–	–	106	–	–
[11], 10 nM	–	–	100	–	–
[11], 100 nM	–	–	101	–	–
[11], 1000 nM	–	–	93.7	–	–
[11], 10000 nM	–	–	91	–	–
[18], 0.3 µM	104	–	–	–	–
[18], 3 µM	94	–	–	–	–
[18], 10 µM	37	–	–	–	–
[18], 30 µM	9	–	–	–	–
[19], 24 h	–	–	–	–	9.15
[19], 48 h	–	–	–	–	9.16
[19], 72 h	–	–	–	–	15.6

Conditions	drug sensitivity score	relative viability EC50 [µM]
[4]	–	> 10
[5]	–	> 10
[6]	–	> 10
[13]	0	–
[14]	0	–
[15]	1.3	–
[16]	0	–
[20]	–	> 10

drug-induced phospholipidosis [%], [17]
Conditions	0.3 µM	0.833333 µM	3.33333 µM	6.66667 µM	10 µM	30 µM
24 h	3.9	1.59	17.6	53.6	65.6	111
48 h	2.99	-2.35	15.6	55.1	61.6	109
72 h	5.95	2.92	12.5	44.6	51.8	110

CC(NCCC(c1ccccc1)c1ccccc1)c1ccccc1 (stereo not given) [fendiline]
Conditions	SARS-CoV-2 infection rate [%]	cell count [%]	cell viability [%]	morphology score	phospholipidosis EC50 [µM]
[1], 0.3 µM	–	–	–	-0.14	–
[1], 3 µM	–	–	–	0.77	–
[1], 10 µM	–	–	–	0.9	–
[1], 30 µM	–	–	–	0.08	–
[2], 0.3 µM	–	98	–	–	–
[2], 3 µM	–	110	–	–	–
[2], 10 µM	–	119	–	–	–
[2], 30 µM	–	43	–	–	–
[7], 1 nM	–	–	99.2	–	–
[7], 10 nM	–	–	106	–	–
[7], 100 nM	–	–	93.1	–	–
[7], 1000 nM	–	–	99.6	–	–
[7], 10000 nM	–	–	84.2	–	–
[8], 1 nM	–	–	110	–	–
[8], 10 nM	–	–	97.8	–	–
[8], 100 nM	–	–	102	–	–
[8], 1000 nM	–	–	94.2	–	–
[8], 10000 nM	–	–	70.1	–	–
[9], 1 nM	–	–	97.6	–	–
[9], 10 nM	–	–	99.8	–	–
[9], 100 nM	–	–	93.9	–	–
[9], 1000 nM	–	–	98.1	–	–
[9], 10000 nM	–	–	67.6	–	–
[10], 1 nM	–	–	91.6	–	–
[10], 10 nM	–	–	96.3	–	–
[10], 100 nM	–	–	103	–	–
[10], 1000 nM	–	–	102	–	–
[10], 10000 nM	–	–	46.7	–	–
[11], 1 nM	–	–	96.5	–	–
[11], 10 nM	–	–	98.6	–	–
[11], 100 nM	–	–	97.5	–	–
[11], 1000 nM	–	–	99.4	–	–
[11], 10000 nM	–	–	88.9	–	–
[18], 0.3 µM	100	–	–	–	–
[18], 3 µM	47	–	–	–	–
[18], 10 µM	13	–	–	–	–
[18], 30 µM	45	–	–	–	–
[19], 24 h	–	–	–	–	4.59
[19], 48 h	–	–	–	–	6.53
[19], 72 h	–	–	–	–	6.61

Conditions	drug sensitivity score	relative viability EC50 [µM]
[3]	–	> 10
[5]	–	3.42
[6]	–	> 10
[12]	0.3	–
[13]	2.2	–
[14]	1.7	–
[15]	2.6	–
[16]	0	–

drug-induced phospholipidosis [%], [17]
Conditions	0.3 µM	0.833333 µM	3.33333 µM	6.66667 µM	10 µM	30 µM
24 h	3.14	1.17	27.5	62.8	85	85.8
48 h	2.47	2.24	19.7	62.3	88.8	–
72 h	1.95	-3.79	18.1	60.3	87.3	–

CN1CCCN(C(c2ccccc2)c2ccc(Cl)cc2)CC1 (stereo not given) [homochlorcyclizine]
Conditions	SARS-CoV-2 infection rate [%]	cell count [%]	cell viability [%]	morphology score	phospholipidosis EC50 [µM]
[1], 0.3 µM	–	–	–	0.01	–
[1], 3 µM	–	–	–	0.71	–
[1], 10 µM	–	–	–	0.84	–
[1], 30 µM	–	–	–	0.53	–
[2], 0.3 µM	–	102	–	–	–
[2], 3 µM	–	117	–	–	–
[2], 10 µM	–	113	–	–	–
[2], 30 µM	–	95	–	–	–
[7], 1 nM	–	–	99.8	–	–
[7], 10 nM	–	–	95.7	–	–
[7], 100 nM	–	–	104	–	–
[7], 1000 nM	–	–	99.2	–	–
[7], 10000 nM	–	–	97.1	–	–
[8], 1 nM	–	–	98.7	–	–
[8], 10 nM	–	–	103	–	–
[8], 100 nM	–	–	104	–	–
[8], 1000 nM	–	–	108	–	–
[8], 10000 nM	–	–	79.6	–	–
[9], 1 nM	–	–	97.5	–	–
[9], 10 nM	–	–	94.7	–	–
[9], 100 nM	–	–	90.5	–	–
[9], 1000 nM	–	–	99.6	–	–
[9], 10000 nM	–	–	101	–	–
[10], 1 nM	–	–	96.8	–	–
[10], 10 nM	–	–	94.3	–	–
[10], 100 nM	–	–	100	–	–
[10], 1000 nM	–	–	102	–	–
[10], 10000 nM	–	–	99.3	–	–
[11], 1 nM	–	–	97.9	–	–
[11], 10 nM	–	–	99.5	–	–
[11], 100 nM	–	–	95.2	–	–
[11], 1000 nM	–	–	96.4	–	–
[11], 10000 nM	–	–	102	–	–
[18], 0.3 µM	97	–	–	–	–
[18], 3 µM	51	–	–	–	–
[18], 10 µM	20	–	–	–	–
[18], 30 µM	19	–	–	–	–
[19], 24 h	–	–	–	–	6.4
[19], 48 h	–	–	–	–	7.14
[19], 72 h	–	–	–	–	10.5

Conditions	drug sensitivity score	relative viability EC50 [µM]
[3]	–	> 10
[4]	–	> 10
[5]	–	> 10
[6]	–	> 10
[12]	0	–
[13]	0.4	–
[14]	0	–
[15]	0	–
[16]	0	–
[20]	–	> 10

drug-induced phospholipidosis [%], [17]
Conditions	0.3 µM	0.833333 µM	3.33333 µM	6.66667 µM	10 µM	30 µM
24 h	1.65	3.27	20.6	54.6	81	102
48 h	3.21	3.5	22.2	49.2	82.5	107
72 h	7.01	3.95	24.7	47.4	80.1	134
